We go through 37 compounds from patent US20130296311A1, “INHIBITORS OF HCV NS5A” (PRESIDIO PHARMACEUTICALS, INC., priority 2010, published 2013).

The assay has as its system HCV 1b_Huh-Luc/Neo-ET cell line persistently expressing a bicistronic genotype 1b replicon in Huh 7 cells. Briefly: HCV replicon assay (luciferase readout, 72 h). To be noted: Hepatitis C virus. It is filed as cell-based, HCV genotype 1b. On the procedure:
Biological activity of the compounds of the invention was determined using an HCV replicon assay. The HCV 1b_Huh-Luc/Neo-ET cell line persistently expressing a bicistronic genotype 1b replicon in Huh 7 cells was obtained from ReBLikon GMBH. This cell line was used to test compound inhibition using luciferase enzyme activity readout as a measurement of compound inhibition of replicon levels.
On Day 1 (the day after plating), each compound is added in triplicate to the cells. Plates incubated for 72 h prior to running the luciferase assay. Enzyme activity was measured using a Bright-Glo Kit (cat. number E2620) manufactured by Promega Corporation. The following equation was used to generate a percent control value for each compound.
% Control=(Average Compound Value/Average Control)*100
The EC50 value was determined using GraphPad Prism and the following equation:
Y=Bottom+(Top-Bottom)/(1+10̂((LogIC50−X)*HillSlope))
EC50 values of compounds are determined several times in the replicon assay.
Example compounds of the disclosed invention are illustrated in Tables 1-16 attached as appendices. The tables show inhibitory activity of many of the example compounds with respect to HCV 1b. […] The tables further provide mass spectrometry results for the synthesized example compounds.
In general terms: A replicon is a self-replicating genome or part of one, used to study replication in cells.

The mark [1] stands for this setting: Huh-7, read-out: Inhibition of HCV genotype 1b.
[2] abbreviates: Huh-7, 72 h, read-out: Inhibition of HCV genotype 1b.

Where two headings read alike, the source gives them in different places.

Turning to `CC[C@H](C)C(NC(=O)OC)C(=O)N1CCC[C@H]1c1nc2ccc(C#Cc3ccc(-c4cnc([C@@H]5CCCN5C(=O)[C@@H](NC(=O)OC)[C@@H](C)OC)[nH]4)cc3)cc2[nH]1` (stereo partly shown) [Compound 1246], under setting [1], the EC50 was below 1 nM. As for `COC(=O)NC(C(=O)N1CCC[C@H]1c1nc2ccc(C#Cc3ccc4cc(-c5cnc([C@@H]6CCCN6C(=O)[C@H](NC(=O)OC)c6ccccc6)[nH]5)ccc4n3)cc2[nH]1)C(C)C` (stereo partly shown) [Compound 1289], the EC50 under setting [1] is below 1 nM. As for `COC(=O)N[C@@H](C(=O)N1CCC[C@H]1c1ncc(-c2ccc(C#Cc3ccc(-c4cnc([C@@H]5CCCN5C(=O)[C@H](NC(=O)N5CCOCC5)c5ccccc5)[nH]4)cc3)cc2)[nH]1)c1ccccc1` [Compound 224], the EC50 under setting [2] was below 1 nM. On to `COC(=O)N[C@H](C(=O)N1CCC[C@H]1c1ncc(-c2ccc(C#Cc3ccc(-c4cnc([C@@H]5CCCN5C(=O)[C@@H](NC(=O)OC)C(C)(C)O)[nH]4)cc3)cc2)[nH]1)C(C)(C)O` [Compound 993], for which, under setting [2], the EC50 was below 1 nM. Consider `COC(=O)N[C@H](C(=O)N1CCN(C(=O)OC)C[C@H]1c1ncc(-c2ccc(C#Cc3ccc4nc([C@@H]5CCCN5C(=O)[C@H](NC(=O)OC5CCOCC5)c5ccccc5)[nH]c4c3)cc2)[nH]1)C(C)C` [Compound 1231], for which, under setting [1], the EC50 was below 1 nM. Turning to `COC(=O)N[C@H](C(=O)N1CCC[C@H]1c1nc(C(F)(F)F)c(C#Cc2ccc3cc(-c4cnc([C@@H]5CCCN5C(=O)[C@@H](NC(=O)OC)[C@@H](C)OC)[nH]4)ccc3c2)[nH]1)C1CCCC1` [Compound 1263], the EC50 under setting [1] was below 1 nM.

Turning to `COC(=O)N[C@H](C(=O)N1CCC[C@H]1c1nc2c([nH]1)-c1ccc(C#Cc3ccc4nc([C@@H]5CCCN5C(=O)[C@H](NC(=O)OC5CCOCC5)c5ccccc5)[nH]c4c3)cc1CCC2)C(C)C` [Compound 1282], the EC50 under setting [1] was below 1 nM. In the case of `COC(=O)N[C@H](C(=O)N1CCC[C@H]1c1ncc(-c2ccc(C#Cc3ccc(-c4cnc([C@@H]5CCCN5C(=O)[C@@H](c5ccccc5)N5CCC(O)CC5)[nH]4)cc3)cc2)[nH]1)C(C)C` [Compound 956], the EC50 under setting [2] is below 1 nM. Consider `COC(=O)N[C@H](C(=O)N1CCC[C@H]1c1nc(C)c(C#Cc2ccc3cc(-c4cnc([C@@H]5CCCN5C(=O)[C@@H](NC(=O)OC)[C@@H](C)OC)[nH]4)ccc3c2)[nH]1)C1CCCC1` [Compound 1266], for which the EC50 under setting [1] is below 1 nM. For `COC(=O)N[C@H](C(=O)N1CCC[C@H]1c1nc2c([nH]1)-c1ccc(C#Cc3ccc4nc([C@@H]5CCCN5C(=O)[C@@H](NC(=O)OC)C(C)C)[nH]c4c3)cc1CCC2)C(C)C` [Compound 1279], the EC50 under setting [1] is below 1 nM.

`COC(=O)N[C@@H](C(=O)N1CCC[C@H]1c1ncc(-c2ccc(C#Cc3ccc(-c4cnc([C@@H]5CCCN5C(=O)c5cccnc5)[nH]4)cc3)cc2)[nH]1)c1ccccc1` [Compound 183]: under setting [2], the EC50 is below 1 nM. Turning to `COC(=O)N[C@H](C(=O)N[C@@H](C)c1ncc(-c2ccc(C#Cc3ccc(-c4cnc([C@@H]5CCCN5C(=O)[C@H](C(C)C)N(C)C)[nH]4)cc3)cc2)[nH]1)C(C)C` [Compound 963], under setting [2], the EC50 lay within 1 to 9.9 nM. For `COC(=O)N[C@H](C(=O)N[C@@H](C)c1nc2ccc(C#Cc3ccc(-c4cnc([C@@H]5CCCN5C(=O)[C@@H](NC(=O)OC)C(C)C)[nH]4)cc3)cc2[nH]1)C(C)C` [Compound 867], the EC50 under setting [2] is below 1 nM. Same read-out and setting: the same measure for `COC(=O)N[C@@H](CCC(=O)O)C(=O)N1CCC[C@H]1c1ncc(-c2ccc(C#Cc3ccc4nc([C@@H]5CCCN5C(=O)[C@H](CCC(=O)O)NC(=O)OC)[nH]c4c3)cc2)[nH]1` [Compound 1047]: 10 to 999 nM; for `CCN(CC)[C@@H](C(=O)N1CCC[C@H]1c1ncc(-c2ccc(-c3ccc(C#Cc4cnc([C@@H]5CCCN5C(=O)[C@H](NC(=O)OC)c5ccccc5)[nH]4)cc3)cc2)[nH]1)c1ccccc1` [Compound 751]: below 1 nM; for `COC(=O)N[C@H](C(=O)N1CCCC[C@H]1c1ncc(-c2ccc(C#Cc3ccc4nc([C@@H]5CCCN5C(=O)[C@@H](NC(=O)OC)C(C)C)[nH]c4c3)cc2)[nH]1)C(C)C` [Compound 1032]: below 1 nM.

`CC(C)(C)OC(=O)NC(C)(C)C(=O)N1CCC[C@H]1c1ncc(C#Cc2ccc(-c3cnc([C@@H]4CCCN4C(=O)C(C)(C)NC(=O)OC(C)(C)C)[nH]3)cc2)[nH]1` [Compound 106]: the EC50 under setting [2] was above 1000 nM. Turning to `COC(=O)N[C@H](C(=O)N1CCOC[C@H]1c1ncc(-c2ccc(C#Cc3ccc4nc([C@@H]5CCCN5C(=O)[C@@H](NC(=O)OC)C(C)C)[nH]c4c3)cc2)[nH]1)C(C)C` [Compound 1027], the EC50 under setting [2] is below 1 nM.

In the case of `COC(=O)N[C@H](C(=O)N1CCC[C@H]1c1nc2ccc3cc(C#Cc4ccc5nc([C@@H]6CCCN6C(=O)[C@H](NC(=O)OC6CCOCC6)c6ccccc6)[nH]c5c4)ccc3c2[nH]1)C(C)C` [Compound 1276], under setting [1], the EC50 was below 1 nM.

Consider `O=C(N[C@@H](C(=O)N1CCC[C@H]1c1ncc(-c2ccc(C#Cc3ccc(-c4cnc([C@@H]5CCCN5C(=O)[C@H](NC(=O)N5CC[C@@H](O)C5)c5ccccc5)[nH]4)cc3)cc2)[nH]1)c1ccccc1)N1CC[C@@H](O)C1` [Compound 252], for which the EC50 under setting [2] was below 1 nM. Still for that read-out and setting: in the case of `COC(=O)N[C@H](C(=O)N1CCC[C@H]1c1ncc(C#Cc2ccc(-c3cnc([C@@H]4CCCN4C(=O)[C@@H](NC(=O)OC)C(C)C)[nH]3)cc2)[nH]1)C(C)C` [Compound 134] it was below 1 nM; in that of `CS(=O)(=O)N[C@@H](C(=O)N1CCC[C@H]1c1ncc(-c2ccc(C#Cc3ccc(-c4cnc([C@@H]5CCCN5C(=O)[C@@H](c5ccccc5)N5CCCCC5)[nH]4)cc3)cc2)[nH]1)c1ccccc1` [Compound 231], below 1 nM.

Turning to `COC(=O)N[C@H](C(=O)N1CCC[C@H]1c1ncc(-c2ccc(C#Cc3ccc(-c4cnc([C@@H]5CCCN5C(=O)[C@@H](NC(=O)OC)C5CCOCC5)[nH]4)cc3)cc2)[nH]1)C(C)C` [Compound 1219], the EC50 under setting [1] was below 1 nM. `COC(=O)N[C@@H](C(=O)N1CCC[C@H]1c1ncc(-c2ccc(C#Cc3ccc(-c4cnc([C@@H]5CCCN5C(=O)[C@H](NC(=O)[C@H]5CCCN5C)c5ccccc5)[nH]4)cc3)cc2)[nH]1)c1ccccc1` [Compound 204]: under setting [2], the EC50 was below 1 nM.

With `COC(=O)N[C@@H](C(=O)N1CCC[C@H]1c1ncc(C#Cc2ccc(-c3ccc(-c4cnc([C@@H]5CCCN5C(=O)[C@H](NC(=O)C5CC5)c5ccccc5)[nH]4)cc3)cc2)[nH]1)c1ccccc1` [Compound 754], the EC50 under setting [2] was below 1 nM. On to `COC(=O)N[C@H](C(=O)N1CCN(C(C)=O)C[C@H]1c1ncc(-c2ccc(C#Cc3ccc4nc([C@@H]5CCCN5C(=O)[C@@H](NC(=O)OC)C(C)C)[nH]c4c3)cc2)[nH]1)C(C)C` [Compound 1232], for which the EC50 under setting [1] is below 1 nM. Consider `COC(=O)N[C@@H](C(=O)N1CCC[C@H]1c1ncc(-c2ccc(C#Cc3ccc(-c4cnc([C@@H]5CCCN5C(=O)[C@H](NC(=O)N5CCC[C@@H]5C)c5ccccc5)[nH]4)cc3)cc2)[nH]1)c1ccccc1` [Compound 261], for which the EC50 under setting [2] was below 1 nM.

Consider `COC(=O)N[C@H](C(=O)N1CCC[C@H]1c1ncc(-c2ccc(C#Cc3ccc(-c4cnc([C@@H]5CCCN5C(=O)[C@H](NC(=O)N5CCN(C)CC5)c5ccccc5)[nH]4)cc3)cc2)[nH]1)C(C)C` [Compound 989], for which the EC50 under setting [2] is below 1 nM. Turning to `COC(=O)NC(C(=O)N[C@@H](C)c1ncc(-c2ccc(C#Cc3ccc(-c4cnc([C@@H]5CCCN5C(=O)[C@H](NC(=O)OC)c5ccccc5)[nH]4)cc3)cc2)[nH]1)c1ccccc1` (stereo partly shown) [Compound 279], the EC50 under setting [2] is below 1 nM. For `CC[C@H](C)[C@H](NC(=O)OC)C(=O)N1CCC[C@H]1c1ncc(-c2ccc(C#Cc3ccc4nc([C@@H]5CCCN5C(=O)[C@@H](NC(=O)OC)[C@@H](C)CC)[nH]c4n3)cc2)[nH]1` [Compound 1251], the EC50 under setting [1] was below 1 nM.

Take `COC(=O)N[C@H](C(=O)N1CCC[C@H]1c1ncc(-c2ccc(C#Cc3ccc(-c4cnc([C@@H]5CCCN5C(=O)[C@@H](NC(=O)OC)[C@@H](C)O)[nH]4)cc3)cc2)[nH]1)C(C)C` [Compound 971]: the EC50 under setting [2] was below 1 nM. Take `COC(=O)N[C@H](C(=O)N1CCC[C@H]1c1ncc(-c2ccc(C#Cc3ccc(-c4cnc([C@@H]5CCCN5C(=O)[C@@H](c5ccccc5)N5CCOC5=O)[nH]4)cc3)cc2)[nH]1)C(C)C` [Compound 1007]: the EC50 under setting [2] is below 1 nM. Turning to `CCOC(=O)N[C@@H](C(=O)N1CCC[C@H]1c1ncc(-c2ccc(C#Cc3ccc(-c4cnc([C@@H]5CCCN5C(=O)[C@H](NC(=O)OCC)c5ccccc5)[nH]4)cc3)cc2)[nH]1)c1ccccc1` [Compound 244], the EC50 under setting [2] was below 1 nM. In the case of `C=CC[C@H](NC(=O)OC)C(=O)N1CCC[C@H]1c1nc2ccc(C#Cc3ccc4c(c3)CCc3nc([C@@H]5CCCN5C(=O)[C@@H](NC(=O)OC)C(C)C)[nH]c3-4)cc2[nH]1` [Compound 1105], the EC50 under setting [2] was below 1 nM. Turning to `COC(=O)N[C@H](C(=O)N1CCC[C@H]1c1nc(C)c(C#Cc2ccc3cc(-c4cnc([C@@H]5CCCN5C(=O)[C@@H](NC(=O)OC)[C@@H](C)OC)[nH]4)ccc3c2)[nH]1)C(C)C` [Compound 1264], under setting [1], the EC50 is below 1 nM. With `COC(=O)NC1(C(=O)N2CCC[C@H]2c2ncc(-c3ccc(C#Cc4ccc5nc([C@@H]6CCCN6C(=O)C6(NC(=O)OC)CC6)[nH]c5c4)cc3)[nH]2)CC1` [Compound 1043], the EC50 under setting [2] is 10 to 999 nM. For `COC(=O)N[C@H](C(=O)N1CCC[C@H]1c1ncc(-c2ccc(C#Cc3ccc(-c4cnc([C@@H]5CCCN5C(=O)[C@H](NC(=O)N(CCO)CCO)c5ccccc5)[nH]4)cc3)cc2)[nH]1)C(C)C` [Compound 973], under setting [2], the EC50 is below 1 nM.
